Measured values as given in US7790717B2, “Spiro-oxazolidinone compounds and their use as metabotropic glutamate receptor potentiators” (AstraZeneca AB, priority 2006, dated 2010).

Target: T1, human mGluR2 (Homo sapiens, UniProt Q14416)
T1 construct: expressed in transfected cells; host or cells: CHO cells, stably transfected; membrane preparation
Test: [35S]-GTPγS binding assay of mGluR2 receptor activation (allosteric activator activity)
Assay type: biochemical
Conditions: membranes from CHO cells stably expressing human mGluR2; in presence of 1 μM glutamate
Experimental: A [^35S]-GTPγS binding assay was used to functionally assay mGluR2 receptor activation. The allosteric activator activity of compounds at the human mGluR2 receptor were measured using a [^35S]-GTPγS binding assay with membranes prepared from CHO cells which stably express the human mGluR2. The assay is based upon the principle that agonists bind to G-protein coupled receptors to stimulate GDP-GTP exchange at the G-protein. Since [^35S]-GTPγS is a non-hydrolyzable GTP analog, it can be used to provide an index of GDP-GTP exchange and, thus, receptor activation. The GTPγS binding assay therefore provides a quantitative measure of receptor activation.
Membranes were prepared from CHO cells stably transfected with human mGluR2. Membranes (30 μg protein) were incubated with test compound (3 nM to 300 μM) for 15 minutes at room temperature prior to the addition of 1 μM glutamate, and incubated for 30 min at 30° C. in 500 μL assay buffer (20 mM HEPES, 100 mM NaCl, 10 mM MgCl2), containing 30 μM GDP and 0.1 nM [^35S]-GTPγS (1250 Ci/mmol). Reactions were carried out in triplicate in 2 mL polypropylene 96-well plates. Reactions were terminated by vacuum filtration using a Packard 96-well harvester and Unifilter-96, GF/B filter microplates. The filter plates were washed 4×1.5 mL with ice-old wash buffer (10 mM sodium phosphate buffer, pH 7.4). The filter plates were dried and 35 μL of scintillation fluid (Microscint 20) was added to each well. The amount of radioactivity bound was determined by counting plates on a Packard TopCount. Data was analyzed using GraphPad Prism, and […] and Emax values (relative to the maximum glutamate effect) were calculated using non-linear regression.

T1 sequence (Q14416 19-872): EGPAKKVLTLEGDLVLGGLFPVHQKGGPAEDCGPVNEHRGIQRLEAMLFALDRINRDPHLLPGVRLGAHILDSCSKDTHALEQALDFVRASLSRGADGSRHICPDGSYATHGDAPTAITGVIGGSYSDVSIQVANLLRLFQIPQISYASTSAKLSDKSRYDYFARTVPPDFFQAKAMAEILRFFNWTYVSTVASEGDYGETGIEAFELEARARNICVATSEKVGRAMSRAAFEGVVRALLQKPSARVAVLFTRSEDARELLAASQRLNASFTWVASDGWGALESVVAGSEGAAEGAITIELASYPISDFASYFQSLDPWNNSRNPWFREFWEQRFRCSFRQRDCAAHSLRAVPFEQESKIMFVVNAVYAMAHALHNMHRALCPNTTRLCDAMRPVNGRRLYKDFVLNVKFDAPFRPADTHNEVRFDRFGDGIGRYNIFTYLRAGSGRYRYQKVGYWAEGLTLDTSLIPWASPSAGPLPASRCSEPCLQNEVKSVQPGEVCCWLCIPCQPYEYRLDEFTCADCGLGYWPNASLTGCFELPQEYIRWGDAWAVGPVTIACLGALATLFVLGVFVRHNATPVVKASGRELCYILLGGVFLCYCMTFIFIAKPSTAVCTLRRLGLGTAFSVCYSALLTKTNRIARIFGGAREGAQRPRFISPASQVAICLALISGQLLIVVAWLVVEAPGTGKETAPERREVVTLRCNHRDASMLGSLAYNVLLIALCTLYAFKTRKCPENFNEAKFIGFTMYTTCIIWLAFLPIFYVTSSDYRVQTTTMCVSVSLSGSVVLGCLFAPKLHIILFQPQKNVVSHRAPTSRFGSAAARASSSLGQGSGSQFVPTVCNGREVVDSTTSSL

| SMILES | EC50 [nM] |
| --- | --- |
| O=C1OC2(CCCCC2)CN1Cc1ccc(-c2ccc(NCCN3CCOCC3)nc2)cc1 [Example 1.30, 3-{4-[6-(2-Morpholin-4-yl-ethylamino)-pyridin-3-yl]-benzyl}-1-oxa-3-aza-spiro[4.5] decan-2-one] | 1000 |
| O=C1OC2(CCCCC2)CN1Cc1ccc(-c2ccccc2CN2CCOCC2)cc1 [Example 1.1, 3-(2′-Morpholin-4-ylmethyl-biphenyl-4-ylmethyl)-1-oxa-3-aza-spiro[4.5]decan-2-one] | 326 |
| O=C1OC2(CCC3(CC2)OCCO3)CN1Cc1ccc(-c2ccc(F)cc2)cc1 [Example 1.49, 3-(4′-Fluoro-biphenyl-4-ylmethyl)-1,9,12-trioxa-3-aza-dispiro[4.2.4.2]tetradecan-2-one] | 381 |

The next molecules have a lower EC50 than those just listed; values first:

| EC50 [nM] | SMILES |
| --- | --- |
| 95 | O=C1OC2(CCCCC2)CN1Cc1ccc(-c2ccccc2)cc1 [Example 3.2, 3-Biphenyl-4-ylmethyl-1-oxa-3-aza-spiro[4.5]decan-2-one] |
| 14 | O=C1OC2(CCCCC2)CN1Cc1ccc(-c2ccc(Oc3ccccc3)cc2)cc1 [Example 1.6, 3-(4′-Phenoxy-biphenyl-4-ylmethyl)-1-oxa-3-aza-spiro[4.5]decan-2-one] |
